Assay results reported in ChEMBL document CHEMBL4251681, “Isochromophilones A-F, Cytotoxic Chloroazaphilones from the Marine Mangrove Endophytic Fungus Diaporthe sp. SCSIO 41011” (J Nat Prod, 2018).
pIC50: −log10 of the molar value. The source made the active and inactive calls. No cut-off for these calls is given here.

Columns and labels:
ACHN = test: Cytotoxicity against human ACHN cells after 72 hrs by CCK-8 assay; format: functional, cell-based
OS-RC-2 = test: Cytotoxicity against human OS-RC2 cells after 72 hrs by CCK-8 assay; format: functional, cell-based; settings: OS-RC-2, 72 h
786-0 [1] = test: Cytotoxicity against human 786-O cells after 72 hrs by CCK-8 assay; format: functional, cell-based; settings: 786-0, 72 h
786-0 [2] = test: Induction of apoptosis in human 786-O cells assessed as necrotic cells at 10 uM after 48 hrs by annexin V-FITC/propidium iodide staining based flow cytometry (reference value: 0%); format: functional
786-0 [3] = test: Induction of apoptosis in human 786-O cells assessed as early apoptotic cells at 5 uM after 24 hrs by annexin V-FITC/propidium iodide staining based flow cytometry (reference value: 0%); format: functional
786-0 [4] = test: Induction of apoptosis in human 786-O cells assessed as viable cells at 10 uM after 72 hrs by annexin V-FITC/propidium iodide staining based flow cytometry (reference value: 100%); format: functional; settings: 786-0, 72 h, read-out: Activity
786-0 [5] = test: Induction of apoptosis in human 786-O cells assessed as viable cells at 10 uM after 48 hrs by annexin V-FITC/propidium iodide staining based flow cytometry (reference value: 100%); format: functional; settings: 786-0, 48 h, read-out: Activity
786-0 [6] = test: Induction of apoptosis in human 786-O cells assessed as viable cells at 10 uM after 24 hrs by annexin V-FITC/propidium iodide staining based flow cytometry (reference value: 100%); format: functional; settings: 786-0, 24 h, read-out: Activity
786-0 [7] = test: Induction of apoptosis in human 786-O cells assessed as viable cells at 5 uM after 72 hrs by annexin V-FITC/propidium iodide staining based flow cytometry (reference value: 100%); format: functional; settings: 786-0, 72 h, read-out: Activity
786-0 [8] = test: Induction of apoptosis in human 786-O cells assessed as late apoptotic cells at 5 uM after 24 hrs by annexin V-FITC/propidium iodide staining based flow cytometry (reference value: 0%); format: functional
786-0 [9] = test: Induction of apoptosis in human 786-O cells assessed as late apoptotic cells at 10 uM after 48 hrs by annexin V-FITC/propidium iodide staining based flow cytometry (reference value: 0%); format: functional
786-0 [10] = test: Induction of apoptosis in human 786-O cells assessed as viable cells at 2.5 uM after 72 hrs by annexin V-FITC/propidium iodide staining based flow cytometry (reference value: 100%); format: functional; settings: 786-0, 72 h, read-out: Activity
786-0 [11] = test: Induction of apoptosis in human 786-O cells assessed as early apoptotic cells at 10 uM after 48 hrs by annexin V-FITC/propidium iodide staining based flow cytometry (reference value: 0%); format: functional
786-0 [12] = test: Induction of apoptosis in human 786-O cells assessed as late apoptotic cells at 5 uM after 48 hrs by annexin V-FITC/propidium iodide staining based flow cytometry (reference value: 0%); format: functional
786-0 [13] = test: Induction of apoptosis in human 786-O cells assessed as late apoptotic cells at 5 uM after 72 hrs by annexin V-FITC/propidium iodide staining based flow cytometry (reference value: 0%); format: functional
786-0 [14] = test: Induction of apoptosis in human 786-O cells assessed as necrotic cells at 2.5 uM after 72 hrs by annexin V-FITC/propidium iodide staining based flow cytometry (reference value: 0%); format: functional
786-0 [15] = test: Induction of apoptosis in human 786-O cells assessed as necrotic cells at 2.5 uM after 24 hrs by annexin V-FITC/propidium iodide staining based flow cytometry (reference value: 0%); format: functional
786-0 [16] = test: Induction of apoptosis in human 786-O cells assessed as early apoptotic cells at 10 uM after 24 hrs by annexin V-FITC/propidium iodide staining based flow cytometry (reference value: 0%); format: functional
786-0 [17] = test: Induction of apoptosis in human 786-O cells assessed as early apoptotic cells at 5 uM after 48 hrs by annexin V-FITC/propidium iodide staining based flow cytometry (reference value: 0%); format: functional
786-0 [18] = test: Cell cycle arrest in human 786-O cells at 2.5 to 10 uM after 24 hrs by […] based flow cytometry; format: functional
786-0 [19] = test: Induction of apoptosis in human 786-O cells assessed as early apoptotic cells at 2.5 uM after 48 hrs by annexin V-FITC/propidium iodide staining based flow cytometry (reference value: 0%); format: functional
786-0 [20] = test: Induction of apoptosis in human 786-O cells assessed as late apoptotic cells at 2.5 uM after 24 hrs by annexin V-FITC/propidium iodide staining based flow cytometry (reference value: 0%); format: functional
786-0 [21] = test: Induction of apoptosis in human 786-O cells assessed as late apoptotic cells at 10 uM after 72 hrs by annexin V-FITC/propidium iodide staining based flow cytometry (reference value: 0%); format: functional
786-0 [22] = test: Induction of apoptosis in human 786-O cells assessed as viable cells at 2.5 uM after 48 hrs by annexin V-FITC/propidium iodide staining based flow cytometry (reference value: 100%); format: functional; settings: 786-0, 48 h, read-out: Activity
786-0 [23] = test: Induction of apoptosis in human 786-O cells assessed as early apoptotic cells at 5 uM after 72 hrs by annexin V-FITC/propidium iodide staining based flow cytometry (reference value: 0%); format: functional
786-0 [24] = test: Induction of apoptosis in human 786-O cells assessed as necrotic cells at 5 uM after 48 hrs by annexin V-FITC/propidium iodide staining based flow cytometry (reference value: 0%); format: functional
786-0 [25] = test: Induction of apoptosis in human 786-O cells assessed as necrotic cells at 10 uM after 24 hrs by annexin V-FITC/propidium iodide staining based flow cytometry (reference value: 0%); format: functional
786-0 [26] = test: Induction of apoptosis in human 786-O cells assessed as late apoptotic cells at 2.5 uM after 48 hrs by annexin V-FITC/propidium iodide staining based flow cytometry (reference value: 0%); format: functional
786-0 [27] = test: Induction of apoptosis in human 786-O cells assessed as necrotic cells at 10 uM after 72 hrs by annexin V-FITC/propidium iodide staining based flow cytometry (reference value: 0%); format: functional
786-0 [28] = test: Induction of apoptosis in human 786-O cells assessed as early apoptotic cells at 2.5 uM after 24 hrs by annexin V-FITC/propidium iodide staining based flow cytometry (reference value: 0%); format: functional
786-0 [29] = test: Induction of apoptosis in human 786-O cells assessed as viable cells at 2.5 uM after 24 hrs by annexin V-FITC/propidium iodide staining based flow cytometry (reference value: 100%); format: functional; settings: 786-0, 24 h, read-out: Activity
786-0 [30] = test: Induction of apoptosis in human 786-O cells assessed as necrotic cells at 5 uM after 72 hrs by annexin V-FITC/propidium iodide staining based flow cytometry (reference value: 0%); format: functional
786-0 [31] = test: Induction of apoptosis in human 786-O cells assessed as viable cells at 5 uM after 48 hrs by annexin V-FITC/propidium iodide staining based flow cytometry (reference value: 100%); format: functional; settings: 786-0, 48 h, read-out: Activity
786-0 [32] = test: Induction of apoptosis in human 786-O cells assessed as late apoptotic cells at 10 uM after 24 hrs by annexin V-FITC/propidium iodide staining based flow cytometry (reference value: 0%); format: functional
786-0 [33] = test: Induction of apoptosis in human 786-O cells assessed as early apoptotic cells at 10 uM after 72 hrs by annexin V-FITC/propidium iodide staining based flow cytometry (reference value: 0%); format: functional
786-0 [34] = test: Induction of apoptosis in human 786-O cells assessed as necrotic cells at 5 uM after 24 hrs by annexin V-FITC/propidium iodide staining based flow cytometry (reference value: 0%); format: functional
786-0 [35] = test: Induction of apoptosis in human 786-O cells assessed as necrotic cells at 2.5 uM after 48 hrs by annexin V-FITC/propidium iodide staining based flow cytometry (reference value: 0%); format: functional
786-0 [36] = test: Induction of apoptosis in human 786-O cells assessed as late apoptotic cells at 2.5 uM after 72 hrs by annexin V-FITC/propidium iodide staining based flow cytometry (reference value: 0%); format: functional
786-0 [37] = test: Induction of apoptosis in human 786-O cells assessed as early apoptotic cells at 2.5 uM after 72 hrs by annexin V-FITC/propidium iodide staining based flow cytometry (reference value: 0%); format: functional
786-0 [38] = test: Induction of apoptosis in human 786-O cells assessed as viable cells at 5 uM after 24 hrs by annexin V-FITC/propidium iodide staining based flow cytometry (reference value: 100%); format: functional; settings: 786-0, 24 h, read-out: Activity

CC[C@H](C)/C=C(C)/C=C/C1=CC2=C(Cl)C(=O)[C@](C)(O)[C@@H](CC(C)=O)C2=CO1
pIC50 (ACHN): 5.36 | pIC50 (OS-RC-2): 5.41 | pIC50 (786-0 [1]): 5.52

CC[C@H](C)/C=C(C)/C=C/C1=CC2=C(Cl)[C@H](OC)[C@]3(C)O[C@@](C)(OC)[C@H](C(C)=O)[C@H]3C2=CO1
Activity (786-0 [2]): 36.7% | Activity (786-0 [3]): 0.6% | viability at 10 µM (786-0 [4]): 0.5% | viability at 10 µM (786-0 [5]): 6.6% | viability at 10 µM (786-0 [6]): 60.9% | viability at 5 µM (786-0 [7]): 85.9% | Activity (786-0 [8]): 2% | Activity (786-0 [9]): 45.5% | viability at 2.5 µM (786-0 [10]): 90.7% | Activity (786-0 [11]): 11.2% | Activity (786-0 [12]): 2.3% | Activity (786-0 [13]): 4% | Activity (786-0 [14]): 6% | pIC50 (ACHN): 4.85 | Activity (786-0 [15]): 4.4% | Activity (786-0 [16]): 2.7% | Activity (786-0 [17]): 2.8% | Activity (786-0 [18]): inactive | Activity (786-0 [19]): 2% | Activity (786-0 [20]): 1.5% | Activity (786-0 [21]): 70.7% | viability at 2.5 µM (786-0 [22]): 93.7% | Activity (786-0 [23]): 3.5% | Activity (786-0 [24]): 8.9% | Activity (786-0 [25]): 28.8% | Activity (786-0 [26]): 1.7% | Activity (786-0 [27]): 1.4% | Activity (786-0 [28]): 0.8% | viability at 2.5 µM (786-0 [29]): 93.3% | Activity (786-0 [30]): 6.6% | viability at 5 µM (786-0 [31]): 86.1% | Activity (786-0 [32]): 7.5% | Activity (786-0 [33]): 27.4% | Activity (786-0 [34]): 10.4% | Activity (786-0 [35]): 2.5% | Activity (786-0 [36]): 1.8% | Activity (786-0 [37]): 1.5% | viability at 5 µM (786-0 [38]): 87% | pIC50 (OS-RC-2): 4.89 | pIC50 (786-0 [1]): 5.05

CC[C@H](C)/C=C(C)/C=C/C1=CC2=C(Cl)[C@H](O)[C@]3(C)OC(=O)[C@H](C(C)=O)[C@H]3C2=CO1
pIC50 (ACHN): 4.57 | pIC50 (OS-RC-2): 4.35 | pIC50 (786-0 [1]): 4.47

CC[C@H](C)/C=C(C)/C=C/C1=CC2=C(Cl)C(=O)[C@](C)(O)[C@@H](O)[C@H]2CO1
pIC50 (ACHN): < 4.30 | pIC50 (OS-RC-2): 5.31 | pIC50 (786-0 [1]): 4.32

CC[C@H](C)/C=C(C)/C=C/C1=CC2=C(Cl)[C@H](OC)[C@]3(C)O[C@](C)(OC)[C@H](C(C)=O)[C@H]3C2=CO1
pIC50 (ACHN): < 4.30 | pIC50 (OS-RC-2): 4.36 | pIC50 (786-0 [1]): 4.42

CC[C@H](C)/C=C(C)/C=C/C1=CC2=C(Cl)C(=O)[C@]3(C)OC(=O)/C(=C(\C)O)[C@]3(O)[C@@]23O[C@H]3O1
pIC50 (ACHN): 4.89 | pIC50 (OS-RC-2): 4.42 | pIC50 (786-0 [1]): 5.00
